Experimental data as given in the supplement of paper PMC10627819.

How the values were obtained:
S. aureus DSM 20231 [1] = test: fitness (endpoint OD595 vs no drug) (fraction); higher = more growth
Summary of the method: (§1)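 Bacterial fitness was scored as optical density at the stationary-phase transition relative to the robust mean of no-drug control wells. Scores are capped at 1. The growth data were OD595 readings every 30 min for 14 h at 37 °C, background-subtracted against the first reading, from 384-well plates inoculated at OD595 0.01 in TSB, LB Lennox or CY.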

S. aureus Newman [2] = test: as above
Summary of the method: as §1

S. pneumoniae D39V [3] = test: as above
Summary of the method: as §1

B. subtilis 168 = test: Bliss interaction score (quartile over a dose matrix) (fitness difference); higher = more antagonism (negative = synergy)
Summary of the method: (§2)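 The Bliss score is observed minus expected fitness, where expected fitness is the product of the single-drug fitness values inferred from the combination data. Fitness is the OD595 at the onset of stationary phase over the plate's robust no-drug mean, capped at 1. Scores are summarised by quartiles over technical, biological and donor/recipient replicates.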

S. aureus DSM 20231 [4] = test: as above
Summary of the method: as §2

S. aureus Newman [5] = test: as above
Summary of the method: as §2

S. pneumoniae D39V [6] = test: as above
Summary of the method: as §2
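Throughout, for Bliss interaction score (quartile over a dose matrix): first quartile when negative (synergy) and third quartile when positive (antagonism).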
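Throughout, for fitness (endpoint OD595 vs no drug): OD595 on entry to stationary phase over no-drug wells; at most 1.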

CC1(C)S[C@@H]2[C@H](NC(=O)[C@H](N)c3ccc(O)cc3)C(=O)N2[C@H]1C(=O)O [Amoxicillin] + CN1C2=CC=CC=C2N=C3C1=CC=CC3=O [Pyocyanin]
Conditions | fitness
S. aureus DSM 20231 [1], first compound 0.0625 µg/mL, partner 1.25 µg/mL | 0.673
S. aureus DSM 20231 [1], first compound 0.0625 µg/mL, partner 2.5 µg/mL | 0.635
S. aureus DSM 20231 [1], first compound 0.0625 µg/mL, partner 5 µg/mL | 0.435
S. aureus DSM 20231 [1], first compound 0.125 µg/mL, partner 1.25 µg/mL | 0.418
S. aureus DSM 20231 [1], first compound 0.125 µg/mL, partner 2.5 µg/mL | 0.417
S. aureus DSM 20231 [1], first compound 0.125 µg/mL, partner 5 µg/mL | 0.254
S. aureus DSM 20231 [1], first compound 0.25 µg/mL, partner 1.25 µg/mL | 0.216
S. aureus DSM 20231 [1], first compound 0.25 µg/mL, partner 2.5 µg/mL | 0.195
S. aureus DSM 20231 [1], first compound 0.25 µg/mL, partner 5 µg/mL | 0.121
S. aureus Newman [2], first compound 0.0625 µg/mL, partner 1.25 µg/mL | 0.829
S. aureus Newman [2], first compound 0.0625 µg/mL, partner 2.5 µg/mL | 0.71
S. aureus Newman [2], first compound 0.0625 µg/mL, partner 5 µg/mL | 0.486
S. aureus Newman [2], first compound 0.125 µg/mL, partner 2.5 µg/mL | 0.767
S. aureus Newman [2], first compound 0.125 µg/mL, partner 5 µg/mL | 0.374
S. pneumoniae D39V [3], first compound 0.0008 µg/mL, partner 0.325 µg/mL | 0.992
S. pneumoniae D39V [3], first compound 0.0008 µg/mL, partner 0.65 µg/mL | 0.987
S. pneumoniae D39V [3], first compound 0.0015 µg/mL, partner 0.325 µg/mL | ≥ 1
S. pneumoniae D39V [3], first compound 0.0015 µg/mL, partner 0.65 µg/mL | 0.978
S. pneumoniae D39V [3], first compound 0.0015 µg/mL, partner 1.3 µg/mL | 0.935
S. pneumoniae D39V [3], first compound 0.003 µg/mL, partner 0.325 µg/mL | ≥ 1
S. pneumoniae D39V [3], first compound 0.003 µg/mL, partner 0.65 µg/mL | 0.974
S. pneumoniae D39V [3], first compound 0.003 µg/mL, partner 1.3 µg/mL | 0.945

one replicate
Conditions | fitness
S. aureus DSM 20231 [1], first compound 0.5 µg/mL, partner 1.25 µg/mL | 0.0229
S. aureus DSM 20231 [1], first compound 0.5 µg/mL, partner 2.5 µg/mL | 0.0134
S. aureus DSM 20231 [1], first compound 0.5 µg/mL, partner 5 µg/mL | 0.0115
S. pneumoniae D39V [3], first compound 0.0008 µg/mL, partner 1.3 µg/mL | 0.907
S. pneumoniae D39V [3], first compound 0.006 µg/mL, partner 0.325 µg/mL | 0.624
S. pneumoniae D39V [3], first compound 0.006 µg/mL, partner 0.65 µg/mL | 0.63
S. pneumoniae D39V [3], first compound 0.006 µg/mL, partner 1.3 µg/mL | 0.734

Conditions | Bliss interaction score
B. subtilis 168 | -0.0439
S. aureus DSM 20231 [4] | 0.0915
S. aureus Newman [5] | 0.0587
S. pneumoniae D39V [6] | 0.0791

CC1(C)S[C@@H]2[C@H](NC(=O)[C@H](N)c3ccc(O)cc3)C(=O)N2[C@H]1C(=O)O [Amoxicillin] + CN(N=O)C(=O)N[C@@H](C=O)[C@@H](O)[C@H](O)[C@H](O)CO [Streptozotocin]
fitness
Conditions | first compound 0.0008 µg/mL | first compound 0.0015 µg/mL | first compound 0.003 µg/mL | first compound 0.0625 µg/mL | first compound 0.125 µg/mL | first compound 0.25 µg/mL
S. aureus DSM 20231 [1], partner 0.15 µg/mL | – | – | – | 0.434 | 0.362 | 0.0212
S. aureus DSM 20231 [1], partner 0.3 µg/mL | – | – | – | 0.496 | 0.286 | 0.0296
S. aureus DSM 20231 [1], partner 0.6 µg/mL | – | – | – | 0.41 | 0.234 | 0.0211
S. aureus Newman [2], partner 0.15 µg/mL | – | – | – | 0.769 | 0.736 | 0.753
S. aureus Newman [2], partner 0.3 µg/mL | – | – | – | 0.669 | 0.677 | 0.64
S. aureus Newman [2], partner 0.6 µg/mL | – | – | – | 0.523 | 0.524 | 0.491
S. pneumoniae D39V [3], partner 1.2 µg/mL | 0.935 | 0.866 | 0.844 | – | – | –
S. pneumoniae D39V [3], partner 2.4 µg/mL | 0.963 | 0.945 | 0.929 | – | – | –
S. pneumoniae D39V [3], partner 4.8 µg/mL | 0.928 | 0.877 | 0.812 | – | – | –

fitness, one replicate
Conditions | partner 0.15 µg/mL | partner 0.3 µg/mL | partner 0.6 µg/mL | partner 1.2 µg/mL | partner 2.4 µg/mL | partner 4.8 µg/mL
S. aureus DSM 20231 [1], first compound 0.5 µg/mL | 0.0024 | 0.0025 | 0 | – | – | –
S. pneumoniae D39V [3], first compound 0.006 µg/mL | – | – | – | 0.376 | 0.405 | 0.365

Conditions | Bliss interaction score
B. subtilis 168 | 0.0362
S. aureus DSM 20231 [4] | -0.0844
S. aureus Newman [5] | -0.0299
S. pneumoniae D39V [6] | -0.0885
